Assay results taken from patent US20100137313A1 (ASTRAZENECA AB, priority 2008, published 2010).

Biological target: S. pneumoniae Topoisomerase IV ATPase (ParE) (Streptococcus pneumoniae serotype 4, UniProt Q59961)
Assay: S. pneumoniae Topoisomerase IV ATPase inhibition
Assay type: biochemical
Conditions: values marked * are an average of two or more data points; for inhibition at 13 µM: read-out: % Inh (13 μM) of S. pneumoniae Topoisomerase IV ATPase
Outline: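 Phosphate-release ATPase assay: 1.25 nM ParE, 160 μM ATP, DNA-stimulated. Quench with malachite green/molybdate in 1 M HCl, read 650 nm; IC50 from 10-point dose series.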

Chain of S. pneumoniae Topoisomerase IV ATPase (ParE) (Q59961 whole entry): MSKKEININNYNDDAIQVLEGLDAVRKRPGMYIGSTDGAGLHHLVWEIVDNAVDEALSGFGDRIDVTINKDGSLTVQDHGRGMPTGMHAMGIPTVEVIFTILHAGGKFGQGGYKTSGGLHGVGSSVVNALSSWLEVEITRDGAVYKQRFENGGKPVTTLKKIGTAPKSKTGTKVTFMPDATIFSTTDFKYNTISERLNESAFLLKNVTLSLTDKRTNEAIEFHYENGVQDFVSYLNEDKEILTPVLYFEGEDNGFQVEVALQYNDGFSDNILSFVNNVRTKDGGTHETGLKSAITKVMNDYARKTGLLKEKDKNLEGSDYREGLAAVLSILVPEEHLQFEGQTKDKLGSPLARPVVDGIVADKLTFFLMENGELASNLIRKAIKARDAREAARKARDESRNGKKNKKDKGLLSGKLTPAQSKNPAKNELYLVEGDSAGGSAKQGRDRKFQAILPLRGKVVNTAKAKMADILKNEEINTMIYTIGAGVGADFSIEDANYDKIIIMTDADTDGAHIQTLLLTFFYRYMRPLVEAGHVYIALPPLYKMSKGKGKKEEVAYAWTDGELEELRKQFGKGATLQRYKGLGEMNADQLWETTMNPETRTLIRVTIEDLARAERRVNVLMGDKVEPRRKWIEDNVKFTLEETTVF

Compound	inhibition at 13 µM [%]	% Inh (13 μM) of S. pneumoniae Topoisomerase IV ATPase (13 µM) [%]
COc1cc(Nc2ncc(-c3cc(C(=O)O)c(=O)n(CCS(C)(=O)=O)c3)c(-n3ccc(C(F)(F)F)n3)n2)cc(OC)c1 [Example 1095, 5-(2-(3,5-dimethoxyphenylamino)-4-(3-(trifluoromethyl)-1H-pyrazol-1-yl)pyrimidin-5-yl)-1-(2-(methylsulfonyl)ethyl)-2-oxo-1,2-dihydropyridine-3-carboxylic acid]	100	
COc1cc(Nc2ncc(-c3c[nH]c(=O)c(C(=O)O)c3)c(-n3ccc(C(F)(F)F)n3)n2)cc(OC)c1 [Example 1096, 5-(2-(3,5-Dimethoxyphenylamino)-4-(3-(trifluoromethyl)-1H-pyrazol-1-yl)pyrimidin-5-yl)-2-oxo-1,2-dihydropyridine-3-carboxylic acid]	100	
COc1cc(Nc2ncc(-c3cc(C(=O)O)c(=O)n(CCS(C)(=O)=O)c3)c(-n3nc(C(F)(F)F)cc3C)n2)cc(OC)c1 [Example 1097, 5-(2-(3,5-Dimethoxyphenylamino)-4-(5-methyl-3-(trifluoromethyl)-1H-pyrazol-1-yl)pyrimidin-5-yl)-1-(2-(methylsulfonyl)ethyl)-2-oxo-1,2-dihydropyridine-3-carboxylic acid]	100	
COc1cc(Nc2ncc(-c3c[nH]c(=O)c(C(=O)O)c3)c(-n3nc(C(F)(F)F)cc3C)n2)cc(OC)c1 [Example 1098, 5-(2-(3,5-Dimethoxyphenylamino)-4-(5-methyl-3-(trifluoromethyl)-1H-pyrazol-1-yl)pyrimidin-5-yl)-2-oxo-1,2-dihydropyridine-3-carboxylic acid]	100	
O=C(O)CS(=O)(=O)c1cccc(-c2cnc(Nc3ccc(F)c(Cl)c3)nc2-n2ccc(C(F)(F)F)n2)c1 [Example 1099, 2-(3-(2-(3-chloro-4-fluorophenylamino)-4-(3-(trifluoromethyl)-1H-pyrazol-1-yl)pyrimidin-5yl)phenylsulfonyl)acetic acid]	100	
CNC(=O)c1cc(-c2cnc(Nc3ccc(F)c(Cl)c3)nc2-n2ccc(C(F)(F)F)n2)cnc1OC [Example 1100, 5-(2-(3-chloro-4-fluorophenylamino)-4-(3-(trifluoromethyl)-1H-pyrazol-1-yl)pyrimidin-5-yl)-2-methoxy-N-methylnicotinamide]	75	
CONC(=O)c1cc(-c2cnc(Nc3ccc(F)c(Cl)c3)nc2-n2ccc(C(F)(F)F)n2)cnc1OC [Example 1101, 5-(2-(3-chloro-4-fluorophenylamino)-4-(3-(trifluoromethyl)-1H-pyrazol-1-yl)pyrimidin-5-yl)-N,2-dimethoxynicotinamide]	82	
CONC(=O)c1cc(-c2cnc(Nc3ccc(F)c(Cl)c3)nc2-n2nc(C(F)(F)F)cc2C)cnc1OC [Example 1102, 5-(2-(3-chloro-4-fluorophenylamino)-4-(5-methyl-3-(trifluoromethyl)-1H-pyrazol-1-yl)pyrimidin-5-yl)-N,2-dimethoxynicotinamide]	96	
CNC(=O)c1cc(-c2cnc(Nc3ccc(F)c(Cl)c3)nc2-n2nc(C(F)(F)F)cc2C)cnc1OC [Example 1103, 5-(2-(3-chloro-4-fluorophenylamino)-4-(5-methyl-3-(trifluoromethyl)-1H-pyrazol-1-yl)pyrimidin-5-yl)-2-methoxy-N-methylnicotinamide]	76	
COc1ncc(-c2cnc(Nc3ccc(F)c(Cl)c3)nc2-n2nc(C(F)(F)F)cc2C)cc1C(N)=O [Example 1105, 5-(2-(3-chloro-4-fluorophenylamino)-4-(5-methyl-3-(trifluoromethyl)-1H-pyrazol-1-yl)pyrimidin-5-yl)-2-methoxynicotinamide]	82	
COc1ccc(-c2cnc(Nc3ccc(F)c(Cl)c3)nc2-n2ccc(C(F)(F)F)n2)cc1C(N)=O [Example 1106, 5-(2-(3-chloro-4-fluorophenylamino)-4-(3-(trifluoromethyl)-1H-pyrazol-1-yl)pyrimidin-5-yl)-2-methoxybenzamide]	21	
CCC(C)Nc1nc(Nc2ccc(F)c(Cl)c2)ncc1-c1cc2ccccc2o1 (stereo not drawn) [Example 1108, 5-(1-benzofuran-2-yl)-N′-butan-2-yl-N-(3-chloro-4-fluorophenyl)pyrimidine-2,4-diamine]	18	
CCC(C)Nc1nc(Nc2ccc(F)c(Cl)c2)ncc1-c1ccc(OC)c(C(F)(F)F)c1 (stereo not drawn) [Example 1109, N′-butan-2-yl-N-(3-chloro-4-fluorophenyl)-5-[4-methoxy-3-(trifluoromethyl)phenyl]pyrimidine-2,4-diamine]	28	
CCC(C)Nc1nc(Nc2ccc(F)c(Cl)c2)ncc1-c1ccc(Cl)c(NC(=O)OC(C)(C)C)c1 (stereo not drawn) [Example 1110, tert-butyl N-[5-[4-(butan-2-ylamino)-2-[(3-chloro-4-fluorophenyl)amino]pyrimidin-5-yl]-2-chlorophenyl]carbamate]	99	
O=C(O)c1ccc(-c2cnc(Nc3ccc(F)c(Cl)c3)nc2-n2ccnc2)s1 [Example 1111, 5-[2-[(3-chloro-4-fluorophenyl)-amino]-4-imidazol-1-ylpyrimidin-5-yl]thiophene-2-carboxylic acid]	88	
CCOC(=O)/C=C/c1cccc(-c2cnc(Nc3ccc(F)c(Cl)c3)nc2-n2cccn2)c1 [Example 1112, ethyl (E)-3-[3-[2-[(3-chloro-4-fluorophenyl)amino]-4-pyrazol-1-ylpyrimidin-5-yl]phenyl]prop-2-enoate]	71	
Fc1ccc(Nc2ncc(-c3cncnc3)c(-n3ccnc3)n2)cc1Cl [Example 1113, N-(3-chloro-4-fluorophenyl)-4-imidazol-1-yl-5-pyrimidin-5-ylpyrimidin-2-amine]	72	
Cc1cc(C(F)(F)F)nn1-c1nc(Nc2ccc(F)c(Cl)c2)ncc1-c1ccc(C(=O)O)s1 [Example 1114, 5-[2-[(3-chloro-4-fluorophenyl)amino]-4-[5-methyl-3-(trifluoromethyl)pyrazol-1-yl]pyrimidin-5-yl]thiophene-2-carboxylic acid]	100	
CS(=O)(=O)c1cc(Nc2ncc(-c3cccc(/C=C/C(=O)O)c3)c(-n3ccc(C(F)(F)F)n3)n2)ccc1F [Example 1115, (E)-3-(3-(2-(4-fluoro-3-(methylsulfonyl)phenylamino)-4-(3-(trifluoromethyl)-1H-pyrazol-1-yl)pyrimidin-5-yl)phenyl)acrylic acid]	93	
Cc1cc(C(F)(F)F)nn1-c1nc(Nc2cc(F)cc(C#N)c2)ncc1-c1cccc(/C=C/C(=O)O)c1 [Example 1116, (E)-3-(3-(2-(3-cyano-5-fluorophenylamino)-4-(5-methyl-3-(trifluoromethyl)-1H-pyrazol-1-yl)pyrimidin-5-yl)phenyl)acrylic acid]	97	
O=C(O)/C=C/c1cccc(-c2cnc(Nc3ccc(F)c(Cl)c3)nc2-n2cccn2)c1 [Example 1120, (E)-3-[3-[2-[(3-chloro-4-fluorophenyl)amino]-4-pyrazol-1-ylpyrimidin-5-yl]phenyl]prop-2-enoic acid]	79	
Cc1cc(C(F)(F)F)nn1-c1nc(Nc2cc(F)cc(C#N)c2)ncc1-c1cncc(C(=O)O)c1 [Example 1121, 5-(2-(3-cyano-5-fluorophenylamino)-4-(5-methyl-3-(trifluoromethyl)-1H-pyrazol-1-yl)pyrimidin-5-yl)nicotinic acid]	99	
COc1ncc(-c2cnc(Nc3cc(Cl)cc(C#N)c3)nc2-n2nc(C(F)(F)F)cc2C)cc1C(=O)O [Example 1122, 5-(2-(3-chloro-5-cyanophenylamino)-4-(5-methyl-3-(trifluoromethyl)-1H-pyrazol-1-yl)pyrimidin-5-yl)-2-methoxynicotinic acid]	100	
Cc1cc(C(F)(F)F)nn1-c1nc(Nc2cc(Cl)cc(C#N)c2)ncc1-c1cncc(C(=O)O)c1 [Example 1123, 5-(2-(3-chloro-5-cyanophenylamino)-4-(5-methyl-3-(trifluoromethyl)-1H-pyrazol-1-yl)pyrimidin-5-yl)nicotinic acid]	100	
NC(=O)c1cncc(-c2cnc(Nc3ccc(F)c(Cl)c3)nc2-n2ccc(C(F)(F)F)n2)c1 [Example 1124, 5-[2-[(3-chloro-4-fluorophenyl)amino]-4-[3-(trifluoromethyl)pyrazol-1-yl]pyrimidin-5-yl]pyridine-3-carboxamide]	42	
CCNC(=O)c1cncc(-c2cnc(Nc3ccc(F)c(Cl)c3)nc2-n2ccc(C(F)(F)F)n2)c1 [Example 1125, 5-[2-[(3-chloro-4-fluorophenyl)amino]-4-[3-(trifluoromethyl)pyrazol-1-yl]pyrimidin-5-yl]-N-ethylpyridine-3-carboxamide]	51	
COc1cc(Nc2ncc(-c3cncc(C(=O)O)c3)c(-n3nc(C)cc3C(F)F)n2)cc(OC)c1 [Example 1127, 5-(4-(5-(difluoromethyl)-3-methyl-1H-pyrazol-1-yl)-2-(3,5-dimethoxyphenylamino)pyrimidin-5-yl)nicotinic acid]	100	
COc1ccc(C(=O)O)cc1-c1cnc(Nc2ccc(F)c(Cl)c2)nc1-n1ccc(C(F)(F)F)n1 [Example 1128, 3-(2-(3-chloro-4-fluorophenylamino)-4-(3-(trifluoromethyl)-1H-pyrazol-1-yl)pyrimidin-5-yl)-4-methoxybenzoic acid]		67
O=C(O)/C=C/c1cccc(-c2cnc(Nc3ccc(F)c(Cl)c3)cc2N2CCOCC2)c1 [Example 1129]	83	
COCCOc1ncc(-c2cnc(Nc3ccc(F)c(Cl)c3)nc2-n2nc(C(F)(F)F)cc2C)cc1C(=O)O [Example 1130, 5-(2-(3-chloro-4-fluorophenylamino)-4-(5-methyl-3-(trifluoromethyl)-1H-pyrazol-1-yl)pyrimidin-5-yl)-2-(2-methoxyethoxy)nicotinic acid]	99	
